Laboratory results from the supplement of paper PMC10307832.

Legend:
Test in all cases: relative viability (nuclei count vs DMSO), 5 days (fraction); higher = more cells survive
[1] = compound: Cn1cc(-c2cnn3c(N)c(Br)c([C@@H]4CCCNC4)nc23)cn1 + COc1cc2c(Oc3ccc(NC(=O)C4(C(=O)Nc5ccc(F)cc5)CC4)cc3F)ccnc2cc1OCCCN1CCOCC1 [Foretinib] (partner 0.25 µM)
In short: (§1)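 The day after seeding in 1536-well plates, lung cancer cell lines were treated by pin tool with a single drug, or with a fixed anchor-drug dose together with five library-drug doses (not always all listed) in √10 steps. After 5 days, a combined fix-and-stain solution (final 0.05% Triton X-100, 1% formaldehyde, 1 ug/ml Hoechst) was added. Nuclei counted on 4× images gave relative viability as treated counts over vehicle counts, reported as the median of duplicate plates.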

[2] = compound: Cn1cc(-c2cnn3c(N)c(Br)c([C@@H]4CCCNC4)nc23)cn1 + Cc1cc(Nc2cc(N3CCN(C)CC3)nc(Sc3ccc(NC(=O)C4CC4)cc3)n2)n[nH]1 [Tozasertib] (partner 0.1 µM)
In short: as §1

[3] = compound: Cn1cc(-c2cnn3c(N)c(Br)c([C@@H]4CCCNC4)nc23)cn1 + NC(=O)Nc1cc(-c2cccc(F)c2)sc1C(=O)N[C@H]1CCCNC1 [AZD7762] (partner 0.2 µM)
In short: as §1

[4] = compound: Cn1cc(-c2cnn3c(N)c(Br)c([C@@H]4CCCNC4)nc23)cn1 + CCNC(=O)c1noc(-c2cc(C(C)C)c(O)cc2O)c1-c1ccc(CN2CCOCC2)cc1 [Luminespib] (partner 0.01 µM)
In short: as §1

Row | Cell Line | relative viability ([1]; first compound 0.05 µM) | relative viability ([1]; first compound 0.1581 µM) | relative viability ([1]; first compound 0.5 µM) | relative viability ([1]; first compound 1.581 µM) | relative viability ([1]; first compound 5 µM) | relative viability ([2]; first compound 0.05 µM) | relative viability ([2]; first compound 0.1581 µM) | relative viability ([2]; first compound 0.5 µM) | relative viability ([2]; first compound 1.581 µM) | relative viability ([2]; first compound 5 µM) | relative viability ([3]; first compound 0.05 µM) | relative viability ([3]; first compound 0.1581 µM) | relative viability ([3]; first compound 0.5 µM) | relative viability ([3]; first compound 1.581 µM) | relative viability ([3]; first compound 5 µM) | relative viability ([4]; first compound 0.05 µM) | relative viability ([4]; first compound 0.1581 µM) | relative viability ([4]; first compound 0.5 µM) | relative viability ([4]; first compound 1.581 µM) | relative viability ([4]; first compound 5 µM)
1 | NCI-H1666 | 0.936 | 1.05 | 0.888 | 1.05 | 0.919 | 0.608 | 0.589 | 0.606 | 0.522 | 0.511 | 0.78 | 0.82 | 0.813 | 0.845 | 0.861 | 0.971 | 1.02 | 0.906 | 0.958 | 0.917
2 | NCI-H1734 | 0.918 | 1.01 | 0.908 | 0.799 | 0.694 | 0.214 | 0.25 | 0.284 | 0.213 | 0.211 | 0.531 | 0.572 | 0.48 | 0.469 | 0.474 | 0.197 | 0.185 | 0.201 | 0.178 | 0.149
3 | NCI-H1755 | 0.997 | 0.943 | 0.91 | 0.95 | 0.821 | 0.715 | 0.619 | 0.648 | 0.54 | 0.489 | 0.518 | 0.511 | 0.416 | 0.4 | 0.307 | 0.465 | 0.534 | 0.394 | 0.562 | 0.194
4 | NCI-H1793 | 0.71 | 0.806 | 0.63 | 0.683 | 0.518 | 0.39 | 0.806 | 0.282 | 0.341 | 0.2 | 0.598 | 0.466 | 0.422 | 0.397 | 0.183 | 0.211 | 0.815 | 0.233 | 0.172 | 0.152
5 | NCI-H1915 | 1.18 | 1.15 | 1.09 | 1.15 | 1.09 | 0.47 | 0.493 | 0.44 | 0.359 | 0.411 | 0.666 | 0.67 | 0.718 | 0.69 | 0.709 | 0.987 | 0.86 | 0.722 | 0.667 | 0.695
6 | NCI-H1944 | 0.895 | 0.953 | 0.834 | 0.799 | 0.689 | 0.263 | 0.273 | 0.255 | 0.241 | 0.21 | 0.608 | 0.491 | 0.466 | 0.423 | 0.341 | 0.705 | 0.671 | 0.706 | 0.635 | 0.344
7 | NCI-H1975 | 0.965 | 0.995 | 0.738 | 0.807 | 0.884 | 0.868 | 0.757 | 0.63 | 0.532 | 0.51 | 0.752 | 0.718 | 0.72 | 0.664 | 0.571 | 0.105 | 0.197 | 0.256 | 0.139 | 0.167
8 | NCI-H1993 | 0.747 | 0.806 | 0.483 | 0.667 | 0.657 | 0.62 | 0.602 | 0.463 | 0.513 | 0.538 | 0.642 | 0.84 | 0.616 | 0.733 | 0.664 | 1.03 | 0.887 | 0.543 | 0.666 | 0.567
